Holding throughout (type): biochemical
The target of assay [1] is T1, ThiSG (thiazole synthase) (Bacillus subtilis, UniProt O31618).
T1 sequence (O31618 1-256): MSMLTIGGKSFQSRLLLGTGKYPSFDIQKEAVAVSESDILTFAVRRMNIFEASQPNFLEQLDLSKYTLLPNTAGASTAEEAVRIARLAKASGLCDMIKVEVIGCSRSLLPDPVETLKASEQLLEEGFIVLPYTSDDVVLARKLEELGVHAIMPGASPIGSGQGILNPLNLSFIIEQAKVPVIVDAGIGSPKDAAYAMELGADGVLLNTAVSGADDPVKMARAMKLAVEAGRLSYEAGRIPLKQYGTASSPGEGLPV
T1 sequence (O31617 1-66 partner): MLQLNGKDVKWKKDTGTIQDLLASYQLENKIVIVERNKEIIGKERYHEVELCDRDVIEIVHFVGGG
Kind of assay: thiazole reconstitution, strong anion exchange HPLC. To be noted: without TenI; ThiF, NifS, ThiO, cysteine, ATP, glycine, DXP.

Assay [2] concerns the target thiamin phosphate synthase (ThiE) (Bacillus subtilis, UniProt P39594). Put plainly: thiochrome assay, HPLC with fluorescence detection. To be noted: co-substrate HMP-PP.
In assay [3] the target is T2, ThiO (Bacillus subtilis, UniProt O31616).
T2 sequence (O31616 1-369): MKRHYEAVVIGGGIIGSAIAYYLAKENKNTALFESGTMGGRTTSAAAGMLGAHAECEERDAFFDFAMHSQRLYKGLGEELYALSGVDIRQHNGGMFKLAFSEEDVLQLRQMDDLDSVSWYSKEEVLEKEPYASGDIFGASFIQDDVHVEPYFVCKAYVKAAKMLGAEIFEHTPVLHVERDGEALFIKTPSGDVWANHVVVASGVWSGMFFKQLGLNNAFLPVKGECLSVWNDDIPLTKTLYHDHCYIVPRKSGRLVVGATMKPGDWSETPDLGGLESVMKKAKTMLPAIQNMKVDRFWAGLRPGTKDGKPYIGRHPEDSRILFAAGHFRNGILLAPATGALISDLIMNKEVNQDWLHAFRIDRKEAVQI
Put plainly: H2O2 formation, HRP-coupled absorbance at […] nm. To be noted: 0.1-10 mM glycine, without TenI.

The structures appear in SMILES notation.

Sequence of thiamin phosphate synthase (ThiE) (P39594 whole entry): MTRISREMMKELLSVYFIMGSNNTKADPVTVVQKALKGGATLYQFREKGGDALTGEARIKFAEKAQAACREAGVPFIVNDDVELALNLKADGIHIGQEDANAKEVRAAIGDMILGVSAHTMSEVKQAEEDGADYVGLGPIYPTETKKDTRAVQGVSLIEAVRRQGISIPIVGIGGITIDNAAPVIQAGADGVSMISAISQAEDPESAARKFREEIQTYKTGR

On to `CC1=N[C@@H](C(=O)O)S/C1=C\COP(=O)(O)O` [compound 14, (R,Z)-2-(2-carboxy-4-methylthiazol-5(2H)-ylidene)ethyl phosphate], for which, in assay [1], the “thiazole reconstitution, strong anion exchange HPLC” value is “In the absence of TenI, cThz*-P was the only thiazole product formed”.

On to `Cc1ncsc1CCOP(=O)(O)O` [compound 15, 2-(4-methylthiazol-5-yl)ethyl phosphate], for which the “thiochrome assay, HPLC with fluorescence detection” value in assay [2] was “cThz-P and Thz-P are significantly better substrates than cThz*-P”.

As for `Cc1nc(C(=O)O)sc1CCOP(=O)(O)O` [compound 16, 2-(2-carboxy-4-methylthiazol-5-yl)ethyl phosphate], the “thiochrome assay, HPLC with fluorescence detection” value in assay [2] is “cThz-P and Thz-P are significantly better substrates than cThz*-P”.

In the case of `NCC(=O)O` [compound 19, glycine], the “H2O2 formation, HRP-coupled absorbance at 500 nm” value in assay [3] is “the rate of hydrogen peroxide production with increasing concentrations of glycine was unaffected by TenI”.

(Values after publication PMC3116082 (Journal of the American Chemical Society, 2011).)
